In patent US20160220510A1, “ANTIBIOTIC COMPOUNDS THAT INHIBIT BACTERIAL PROTEIN SYNTHESIS” (The Board of Regents of the University of Texas System, priority 2015, published 2016):
Values after ≈ are worked out from the molar mass of the structure shown. Counter-ions that a name gives are not always drawn. Like-named read-outs stand apart in the source and are kept apart here.

How the values were obtained:
[1] = tested on: P. aeruginosa aminoacylation/translation (A/T) protein synthesis system (ribosomes, PheRS, EF-Tu, EF-Ts, EF-G); assay: aminoacylation/translation (A/T) scintillation proximity assay; format: biochemical, Pseudomonas aeruginosa; conditions: all P. aeruginosa components
Description: A scintillation proximity assay (SPA) was developed using P. aeruginosa components for the aminoacylation/translation (A/T) assay as described in Ribble et al. The complete assay (50 μl) contained 50 mM Tris-HCl (pH 7.5), 25 mM KCl, 10 mM MgCl2, 0.03 mM spermine, 1.5 mM ATP, 0.5 mM GTP, 40 μM [^3H]Phenylalanine (Phe) (75 cpm/pmol) and 0.3 mg/ml polyU mRNA. To maintain constant levels of ATP and GTP the assay contained a nucleotide regeneration system composed of 4 mM phosphoenolpyruvate (PEP) and 0.025 Units/μl pyruvate kinase (PK). The concentration of ribosomes and proteins in the assay were as follows: ribosome (0.2 μM), PheRS (0.1 μM), EF-Tu (1 μM), EF-Ts (0.05 μM) and EF-G (0.2 μM). These concentrations were arrived at through sequential rounds of optimization: each concentration represents the concentration just below the saturation point for each component of the reaction in the titration.
The screening reactions were carried out in 96 well microtiter plates (Costar). Test compounds were equilibrated by addition of 33 μl of the protein/substrate mix (without tRNA) to 2 μl of chemical compound (3.2 mM) dissolved in 100% DMSO. […] Reactions were stopped by the addition of 5 μl of 0.5 M EDTA. 200 μg of SPA beads (RNA Binding Beads (YSI), Perkin Elmer) in 150 μl of 300 mM citrate buffer (pH 6.2) were added. The plates were analyzed using a 1450 Microbeta (Jet) liquid scintillation and luminescence counter (Wallac). Assays to determine IC50 values were as described above with the test compounds serially diluted from 200 μM to 0.4 μM. The concentration ranges of antibiotics as controls were as follows: spiramycin (0.02 μM to 20.0 μM), tylosin (0.02 μM to 20.0 μM), and fusidic acid (4 μM to 512 μM).

E. coli (ATCC 25922) = assay: Broth microdilution MIC; format: cell-based; conditions: Escherichia coli
E. coli tolC mutant = assay: Broth microdilution MIC; format: cell-based; conditions: Escherichia coli, read-out: MIC E. coli tolC (efflux)
[2] = tested on: Enterococcus faecalis (ATCC 29212); assay: Broth microdilution MIC; format: cell-based
[3] = tested on: Haemophilus influenzae (ATCC 49766); assay: Broth microdilution MIC; format: cell-based; conditions: ATCC49766
[4] = tested on: Moraxella catarrhalis (ATCC 25238); assay: Broth microdilution MIC; format: cell-based; conditions: ATCC25238
[5] = tested on: Pseudomonas aeruginosa (ATCC 47085); assay: Broth microdilution MIC; format: cell-based
[6] = tested on: Pseudomonas aeruginosa hypersensitive strain (ATCC 35151); assay: Broth microdilution MIC; format: cell-based; conditions: ATCC35151, read-out: MIC P. aeruginosa (hypersensitive)
[7] = tested on: Staphylococcus aureus (ATCC 29213); assay: Broth microdilution MIC; format: cell-based; conditions: ATCC29213, read-out: MIC S. aureus
[8] = tested on: Streptococcus pneumonia (ATCC 49619); assay: Broth microdilution MIC; format: cell-based; conditions: Streptococcus pneumoniae
ribosome = assay: Determination of molecular target (ribosome by default); format: biochemical, Pseudomonas aeruginosa; conditions: no accessory protein inhibited
Description: Nitrocellulose binding assays were used to determine inhibition of GDP exchange by EF-Tu as previously described in Bullard et al. “Effects of domain exchanges between Escherichia coli and mammalian mitochondrial EF-Tu on interactions with guanine nucleotides, aminoacyl-tRNA and ribosomes” 1999, Biochim. Biophys. Acta 1446:102-114, which is incorporated herein by reference, with the exception that the enzyme (1 μM) was pre-incubated with 132 μM compound for 15 min prior to the addition of [^3H]GDP. EF-Ts stimulates the exchange of GDP bound by EF-Tu. The ability of compounds to inhibit EF-Ts stimulation of GDP exchange by EF-Tu was measured in assays as described for EF-Tu/GDP exchange with the exceptions that EF-Ts was present at 0.05 μM and the time for the reaction was decreased from 30 min to 30 sec.
Assays for ribosome-dependent GTP hydrolysis by EF-G were carried out in 50 μl reactions containing: 50 mM Tris-HCl (pH 7.5), 10 mM MgCl2, 70 mM NH4Cl, 1 mM dithiothreitol (DTT), 1.8 mM GTP, 0.4 μM P. aeruginosa ribosomes and 0.2 μM EF-G. Final concentrations of compounds in the assays were 132 μM. The amount of GTPase activity was determined by measurement of the amount of Pi liberated using a colorimetric GTPase assay kit (Novus Biologicals) per manufacturer's directions.

[9] = tested on: Gram (+) bacteria (E. faecalis or S. aureus); assay: Time-kill experiments, Gram (+); conditions: four-times the MIC, 0 to 24 hours
Description: Time-kill experiments were performed according to the CLSI guidelines M26-A. H. influenzae (ATCC 49766), E. faecalis ATCC 29212, and Staphylococcus aureus (ATCC 29213) were from the American Type Culture Collection (Manassas, Va.). Growth media were Brain Heart Infusion and Trypticase Soy Broth from Remel (Lenexa, Kans.). For the experiments, 10 mL of broth medium was inoculated with 0.1 mL of a fresh overnight culture and grown at 35° C. with shaking (200 rpm) for 2-3 hours. Pre-warmed flasks containing 10 mL of medium alone or 10 mL of medium containing a test compound at 4×MIC were then inoculated with 0.1 mL of the exponentially growing cultures. Samples were removed at 0, 2, 4, 6, and 24 h, and serial dilutions were plated on blood agar to allow for colony enumeration and calculation of the live cell density.
Time-kill experiments were performed according to the CLSI guideline M26-A to determine the efficacy against both Gram (+) and a Gram (−) organisms. […] The Gram (+) bacteria used was either E. faecalis or S. aureus, while the Gram (−) bacteria was H. influenzae. […] The compounds were tested in these assays at four-times the MIC and between 0 and 24 hours.

H. influenzae = assay: Time-kill experiments, Gram (−); conditions: four-times the MIC, 0 to 24 hours
P. aeruginosa PheRS = P. aeruginosa PheRS (Pseudomonas aeruginosa, UniProt Q9I0A3+Q9I0A4); assay: PheRS tRNA aminoacylation SPA assay; format: biochemical; conditions: for Inhibition of Phenylalanyl-tRNA synthetase (PheRS), target found: 132 μM compound
Sequence of P. aeruginosa PheRS (Q9I0A3 whole entry): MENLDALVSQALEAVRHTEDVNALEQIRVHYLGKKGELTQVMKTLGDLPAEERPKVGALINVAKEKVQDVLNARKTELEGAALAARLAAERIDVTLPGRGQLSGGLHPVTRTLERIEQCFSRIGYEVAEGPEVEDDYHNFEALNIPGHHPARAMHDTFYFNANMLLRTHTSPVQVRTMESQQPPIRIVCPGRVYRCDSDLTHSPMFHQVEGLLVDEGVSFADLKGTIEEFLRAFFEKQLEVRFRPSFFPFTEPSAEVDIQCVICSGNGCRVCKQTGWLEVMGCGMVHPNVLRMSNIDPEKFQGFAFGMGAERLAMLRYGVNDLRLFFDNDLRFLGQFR
Sequence of P. aeruginosa PheRS (Q9I0A4 whole entry): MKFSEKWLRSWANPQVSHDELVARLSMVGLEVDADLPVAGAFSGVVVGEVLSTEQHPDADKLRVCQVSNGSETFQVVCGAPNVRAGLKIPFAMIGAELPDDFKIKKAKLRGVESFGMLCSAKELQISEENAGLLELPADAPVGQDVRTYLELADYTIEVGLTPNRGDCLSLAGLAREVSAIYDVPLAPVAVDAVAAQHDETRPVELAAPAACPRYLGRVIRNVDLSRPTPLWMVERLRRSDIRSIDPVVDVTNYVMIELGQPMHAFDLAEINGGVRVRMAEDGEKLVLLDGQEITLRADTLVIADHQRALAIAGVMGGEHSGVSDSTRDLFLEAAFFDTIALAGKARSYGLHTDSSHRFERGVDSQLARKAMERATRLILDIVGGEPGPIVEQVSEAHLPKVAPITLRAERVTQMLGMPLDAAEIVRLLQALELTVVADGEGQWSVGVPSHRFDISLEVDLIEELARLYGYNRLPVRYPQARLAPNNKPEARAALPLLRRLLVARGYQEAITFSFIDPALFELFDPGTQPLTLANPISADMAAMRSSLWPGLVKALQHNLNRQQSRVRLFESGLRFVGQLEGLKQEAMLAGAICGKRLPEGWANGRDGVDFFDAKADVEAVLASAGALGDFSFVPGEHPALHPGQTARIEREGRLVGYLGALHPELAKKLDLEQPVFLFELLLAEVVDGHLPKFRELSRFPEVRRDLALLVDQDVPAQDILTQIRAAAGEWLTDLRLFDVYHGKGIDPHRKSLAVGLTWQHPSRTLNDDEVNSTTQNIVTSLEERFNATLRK
Description: SPA assays to determine inhibition of PheRS by chemical compounds were as described in Bullard et al. “Expression and characterization of a human mitochondrial phenylalanyl-tRNA synthetase” 1999, J. Mol. Biol. 288:567-577, which his incorporated herein by reference and in Ribble et al. Exceptions were that the enzyme mix was pre-incubated with 132 μM compound for 15 min prior to addition of tRNA. The reactions were stopped by the addition of 5 μl of 0.5 M EDTA. 400 μg of SPA beads (Ysi poly-L-lysine coated beads, Perkin Elmer) in 150 μl of 300 mM citrate buffer (pH 2.0) were added and the plates were analyzed as above.

[10] = ATCC25922, ATCC 25922, read-out: MIC E. coli
[11] = ATCC29212, ATCC 29212, read-out: MIC E. faecalis
[12] = ATCC47085, ATCC 47085, read-out: MIC P. aeruginosa
[13] = ATCC49619, ATCC 49619, read-out: MIC S. pneumo

Structure (SMILES)	IC50 [1]	MIC (E. coli (ATCC 25922); [10])	MIC (E. coli tolC mutant)	MIC [2, 11]	MIC [3]	MIC [4]	MIC [5, 12]	MIC [6]	MIC [7]	MIC [8, 13]	Target found: ribosomal inhibitor (ribosome)	Time-kill mode of action against Gram (+) bacteria [9]	Time-kill mode of action against Gram (−) bacteria (H. influenzae)	IC50 (P. aeruginosa PheRS)	Inhibition of Phenylalanyl-tRNA synthetase (PheRS), target found (P. aeruginosa PheRS)	MIC (E. coli (ATCC 25922); ATCC25922, read-out: MIC E. coli)	MIC ([2]; ATCC29212, read-out: MIC E. faecalis)	MIC ([5]; ATCC47085, read-out: MIC P. aeruginosa)	MIC ([8]; ATCC49619, read-out: MIC S. pneumo)
Cc1cc(C)nc(NC(=N)Nc2ccc(OCc3ccc(Cl)cc3)cc2)n1 [Class 6, (4,6-dimethylpyrimidin-2-yl)[({4-[(4-chlorophenyl)methoxy]phenyl}amino)iminomethyl]amine]	25.8 µM	64 µg/mL (≈ 168 µM)	16 µg/mL (≈ 41.9 µM)	16 µg/mL (≈ 41.9 µM)	32 µg/mL (≈ 83.8 µM)	64 µg/mL (≈ 168 µM)	64 µg/mL (≈ 168 µM)	16 µg/mL (≈ 41.9 µM)	32 µg/mL (≈ 83.8 µM)	32 µg/mL (≈ 83.8 µM)	ribosomal inhibitor	bactericidal	bactericidal	–	–	–	–	–	–
NC(N)=NN=C(/C=C/c1ccc([N+](=O)[O-])o1)/C=C/c1ccc([N+](=O)[O-])o1 [2-[1,5-bis(5-nitrofuran-2-yl)penta-1,4-dien-3-ylideneamino]guanidine hydrochloride]	–	–	–	–	–	–	–	–	–	–	ribosomal inhibitor	–	–	–	–	–	–	–	–
O=C(/C=C/c1ccccc1)c1ccc(O)cc1O [Class 1, (2E)-1-(2,4-Dihydroxyphenyl)-3-phenyl-2-propen-1-one]	33 µM	–	> 128 µg/mL	–	32 µg/mL (≈ 133 µM)	64 µg/mL (≈ 266 µM)	–	> 128 µg/mL	128 µg/mL (≈ 533 µM)	–	–	bactericidal	bactericidal	37 µM	inhibit	> 128 µg/mL	> 128 µg/mL	> 128 µg/mL	> 128 µg/mL
O=C(N/N=C/c1ccc([N+](=O)[O-])o1)c1cc([N+](=O)[O-])cc([N+](=O)[O-])c1O [N-[(1E)-2-(5-nitro(2-furyl))-1-azavinyl](2-hydroxy-3,5-dinitrophenyl)carboxamide]	–	–	–	–	–	–	–	–	–	–	–	–	–	–	inhibit	–	–	–	–
COC(=O)c1c(C)c2c(c(C)c1O)OC(=O)c1c(C)c(Cl)c(O)c(Cl)c1O2 [Class 2, Methyl 2,4-dichloro-3,8-dihydroxy-1,6,9-trimethyl-11-oxo-11H-dibenzo[b,e][1,4]dioxepine-7-carboxylate]	59 µM	> 128 µg/mL	16 µg/mL (≈ 38.7 µM)	8 µg/mL (≈ 19.4 µM)	32 µg/mL (≈ 77.4 µM)	1 µg/mL (≈ 2.42 µM)	128 µg/mL (≈ 310 µM)	8 µg/mL (≈ 19.4 µM)	128 µg/mL (≈ 310 µM)	64 µg/mL (≈ 155 µM)	–	bacteriostatic	bacteriostatic	9.8 µM	inhibit	–	–	–	–
NC(N)=NN=C(/C=C/c1ccc([N+](=O)[O-])o1)/C=C/c1ccc([N+](=O)[O-])o1 [Class 5, 2-[1,5-bis(5-nitrofuran-2-yl)penta-1,4-dien-3-ylideneamino]guanidine hydrochloride]	27.5 µM	> 128 µg/mL	2 µg/mL	128 µg/mL	16 µg/mL	64 µg/mL	128 µg/mL	4 µg/mL	16 µg/mL	32 µg/mL	–	bactericidal	bactericidal	–	–	–	–	–	–
O=C(N/N=C/c1ccc([N+](=O)[O-])o1)c1cc([N+](=O)[O-])cc([N+](=O)[O-])c1O [Class 4, N-[(1E)-2-(5-nitro(2-furyl))-1-azavinyl](2-hydroxy-3,5-dinitrophenyl)carboxamide]	50.2 µM	> 128 µg/mL	2 µg/mL (≈ 5.48 µM)	128 µg/mL (≈ 350 µM)	32 µg/mL (≈ 87.6 µM)	32 µg/mL (≈ 87.6 µM)	32 µg/mL (≈ 87.6 µM)	32 µg/mL (≈ 87.6 µM)	32 µg/mL (≈ 87.6 µM)	128 µg/mL (≈ 350 µM)	–	bacteriostatic	bacteriostatic	40 µM	–	–	–	–	–
